Results from patent US20220323761A1, “METHOD FOR INDUCING HIBERNATION-LIKE STATE AND DEVICE SAME” (University of Tsukuba, priority 2019, published 2022).

How the values were obtained:
[1] = target: T1, adenosine A1 receptor (Mus musculus, UniProt Q60612); test: Metabolic state induced by IP CHA in wild-type mice; format: in vivo
T1 construct: endogenous in cells; host or cells: whole mouse, in vivo (intraperitoneal CHA)
T1 sequence (Q60612 1-326): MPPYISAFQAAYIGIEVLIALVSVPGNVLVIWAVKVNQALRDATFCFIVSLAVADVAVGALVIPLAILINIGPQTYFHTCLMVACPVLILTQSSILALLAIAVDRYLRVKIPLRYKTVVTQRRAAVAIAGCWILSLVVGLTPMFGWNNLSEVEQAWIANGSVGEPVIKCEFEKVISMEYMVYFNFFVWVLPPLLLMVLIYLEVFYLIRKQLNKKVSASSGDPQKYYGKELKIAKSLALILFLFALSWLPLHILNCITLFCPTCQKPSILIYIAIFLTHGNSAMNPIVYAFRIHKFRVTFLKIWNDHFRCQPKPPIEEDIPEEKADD
Source text: In order to record the core body temperature, oxygen consumption amount, EEG, ECG, and respiratory patterns, each animal was housed in a temperature controlled chamber (HC-100, Shin Factory or LP-400P-AR, Nippon Medical & Chemical Instruments Co., Ltd.). In order to continuously record the TB (intraperitoneal temperature), a telemetry temperature sensor (TA11TA-F10, DSI) was implanted into the animal's abdominal cavity under general inhalation anesthesia at least 7 days prior to the recording. The VO 2 and carbon dioxide discharge rate (VCO2) of the animal were continuously recorded using a respiratory gas analyzer (ARCO-2000 mass spectrometer, ARCO System). The respiratory quotient was calculated from the ratio of VCO2/VO2.
The Dreadd agonist CNO (clozapine N-oxide, Abcam, ab141704) was dissolved in physiological saline at a dose of 100 μg/mL, and the solution was frozen at −20° C. The CNO solution was thawed on site and then administered to each mouse intraperitoneally at a dose of 1 mg/kg. The adenosineAl receptor agonist CHA (N^6-cyclohexyl adenosine, Sigma-Aldrich, C9901) was dissolved in physiological saline at a concentration of 250 μg/mL, and the solution was administered intraperitoneally to each mouse at a dose of 2.5 mg/kg.

[2] = administered centrally; cited from earlier work

OC[C@H]1O[C@@H](n2cnc3c(NC4CCCCC4)ncnc32)[C@H](O)[C@@H]1O [CHA, N^6-cyclohexyl adenosine]
induction of hypothermic/hypometabolic state ([1]; IP 2.5 mg/kg, wild-type mice): effectively induced a hypothermic/hypometabolic state | reaction to low TA through behavior (posture and shivering) or increase in VO2 ([1]; TA 12° C., IP 2.5 mg/kg): did not react | TB and VO2 at lowered TA ([1]; TA set to 12° C.): further reduced | TB compared with QIH ([1]; at 20°): tends to be higher

pyroglutamylated RFamide peptide (QDEGSEATGFLPAAGEKTSGPLGNLAEELNGYSRKKGGFSFRF; QRF-amide; UniProt P83859 91-133, looked up) [Qrfp, hypothalamic neuropeptide, endogenous ligand of the orphan G-protein-coupled receptor hGPR103]
heart rate and blood pressure [2]: increase | sympathetic nerve outflow [2]: increases
